Experiments:
[1] = tested on: rat primary astrocytes; test: Cell viability by CV test, primary astrocytes; assay type: cell-based; conditions: 24 h, Sag at its IC50 dose
From the text: (§1) Rat glioma C6 and human glioblastoma U251 cell lines were a kind gift from Dr. Pedro Tranque (Universidad de Castilla-La Mancha, Albacete, Spain), murine melanoma B 16, and human adenocarcinoma HeLa, were a kind gift from Dr. Sinisa Radulovic (Institute for Oncology and Radiology of Serbia, Belgrade, Serbia) while mouse fibrosarcoma L929 was obtained from the European Collection of Animal Cell Cultures (Salisbury, UK). Human breast HCC1419 and prostate PC-3 cells were purchased from LGC Promochem srl (Venezia, Italy). Primary mouse fibroblasts and rat astrocytes were prepared as described (Mijatovic et al. 2004). […]
(§2) Reduction of 3-4,5-dimethylthiazol-2-yl)-2,5-diphenyltetrazolium bromide (MTT) to formazan depends on mitochondrial activity of cultured cells, absorption of crystal violet dye correlates with the number of adherent, live cells, while the release of cytosolic lactate dehydrogenase (LDH) indicates the disruption of membrane integrity caracteristic for necrotic cells. […] Mitohondrial-dependent production of formazan and intensity of absorbed crystal violet by adherent cells were assessed by an automated microplate reader at 570 nm, while the pyruvate-mediated conversion of 2,4-dinitrophenylhydrazine into visible hydrazone precipitate in LDH assay was measured at 492 nm. […]
(§3) FIG. 2. […] Cell viability was then evaluated by CV test. […]

[2] = tested on: mouse fibroblasts; test: Cell viability by CV test, primary fibroblasts; assay type: cell-based; conditions: 24 h, Sag at its IC50 dose
From the text: as §1, §2, §3

[3] = tested on: C6 cells; test: LDH release assay, C6; assay type: cell-based; conditions: 24 h, different doses
Procedure: (§4) Reduction of 3-4,5-dimethylthiazol-2-yl)-2,5-diphenyltetrazolium bromide (MTT) to formazan depends on mitochondrial activity of cultured cells, absorption of crystal violet dye correlates with the number of adherent, live cells, while the release of cytosolic lactate dehydrogenase (LDH) indicates the disruption of membrane integrity caracteristic for necrotic cells. The cells were seeded in flat-bottom 96-well plates in a final volume of 200 μl of culture medium containing different agents, and the assays were performed after 24 h incubation exactly as previously described (Mijatovic et al. 2004, Decker et al., 1998). Mitohondrial-dependent production of formazan and intensity of absorbed crystal violet by adherent cells were assessed by an automated microplate reader at 570 nm, while the pyruvate-mediated conversion of 2,4-dinitrophenylhydrazine into visible hydrazone precipitate in LDH assay was measured at 492 nm. The % of cytotoxicity as indicated by LDH release was calculated as: (E−C)/(T−C)×100, where E is the experimental absorbance of cell cultures, C is the control absorbance of cell-free culture medium, and T is the absorbance corresponding to the maximal (100%) LDH release of Triton-lysed cells.
(§5) FIG. 4. […] Results are calculated as indicated in materials and methods and presented as mean±SD from representative of three independent experiment (*p <0.05). […]

[4] = tested on: B16 cells; test: Autophagy detection by acridin orange staining, B16; assay type: cell-based, mouse; conditions: 18.8 μM, 24 h
Procedure: Vital dye acridin orange (AO) was used for detection of autophagy. The intensity of red fluorescence correlates with acidity and volume of present autophagic organelles (Kanzawa et al. 2004). Assay was performed as follows: the cells were cultured in 6-well plate (2×10^5/well) 24 h in the presence of the drug, detached with trypsin and stained with 1 μg/ml AO in RPMI without phenol red for 15 min at RT. After the end of incubation period cells were washed and resuspended in PBS. Green and red fluorescence emission was measured with a FACSCalibur and analyzed using CellQuest software.
(§6) FIG. 4. […] Results are calculated as indicated in materials and methods and presented as mean±SD from representative of three independent experiment (*p <0.05). […] After 24 h of cultivation without or with drugs, cells were stained with AO orange (B) or PI (C) and analyzed by flow cytometry. The data are presented as mean±SD from three independent experiments. *p<0.05, refers to untreated cultures. […] Cells were incubated with 18.8 μM of Sag or Saq-NO2 for 24 h. After that, the drugs were either removed or not from the cells and incubated for additional 24 h. Cell viability was determined by CV test after 24 and 48 h of incubation (right panels). The data are presented as mean±SD from three independent experiments. *p<0.05, refers to untreated cultures.

[5] = tested on: B16 cells; test: Cell cycle / apoptosis by propidium iodide flow cytometry, B16; assay type: cell-based, mouse; conditions: 18.8 μM, 24 h
Procedure: Apoptotic cell death was assessed by flow cytometry analysis of DNA fragmentation in cells stained with DNA-binding dye propidium iodide (PI). Following a 24 h incubation in 6-well plate, cells (2×10^5/well) were detached with trypsin, washed and fixed in 70% ethanol at 4° C. for 30 min. After washing in PBS, cells were resuspended in PBS containing 1 mg/ml RNase and propidium iodide (40 μg/ml) and kept at 37° C. in the dark for 30 min. Red fluorescence was analyzed with FACSCalibur flow cytometer (BD, Heidelberg, Germany) and distribution of cells among cell cycle phases was determined with Cell Quest Pro software (BD). Hypodiploid cells in sub-G0/G1 compartment were considered apoptotic.
as §6

[6] = tested on: Tumor cells; test: Viability recovery after drug withdrawal (CV test); assay type: cell-based; conditions: 18.8 μM for 24 h, drug removed, additional 24 h
Procedure: as §4, §5

[7] = tested on: B16 cells; test: Cell proliferation by CFSE staining, B16; assay type: cell-based, mouse; conditions: 18.8 μM, 48 h, B16 cells which survived the treatment
Procedure: Rate of cell proliferation was verified by flow cytometric analysis of cells labelled with CFSE (Kang et al. 2005). CFSE dye is stable in cytoplasm more than 15 generations and the intensity of fluorescence decline after each division. Briefly, detached cells were stained with 1.5 μM CFSE for the 15 min at 37° C., washed 2 times, seeded in 6-well plates at 2×10^5 cells/well and then exposed to drugs. After 24 and 48 h of cultivation cells were trypsinized and washed 2 times. Finally, the cells were resuspended in PBS and analyzed by flow cytometry. Green fluorescence emission was measured with a FACSCalibur (BD, Heidelberg, Germany) and analyzed using CellQuest software.
as §6, with “panels). […]” for “panels). The data are presented as mean±SD from three independent experiments. *p<0.05, refers to untreated cultures.”

Compound	effect on viability of non-transformed primary astrocytes [1]	effect on viability of non-transformed primary fibroblasts [2]	LDH release (cytotoxicity, necrosis) [3]	amount of acidic vesicles in the cytoplasm (autophagy) [4]	cell cycle distribution [5]	recovery of viability after drug withdrawal [6]	apoptosis [5]	dividing potential [7]
CC(C)(C)NC(=O)[C@@H]1C[C@@H]2CCCC[C@@H]2CN1C[C@@H](O)[C@H](Cc1ccccc1)NC(=O)[C@H](CC(N)=O)NC(=O)c1ccc2ccccc2n1 [Saq, Saquinavir, reference compound]	highly toxic	highly toxic	induced LDH release in both cell lines in a dose-dependent way	absence of autophagia	did not show considerably different distribution from control	mainly restored the viability		
CC(C)(C)NC(=O)[C@@H]1C[C@@H]2CCCC[C@@H]2CN1C[C@@H](O[N+](=O)[O-])[C@H](Cc1ccccc1)NC(=O)[C@H](CC(N)=O)NC(=O)c1ccc2ccccc2n1 [Saq-NO2, nitric ester of Saquinavir]	did not affect the viability	did not affect the viability	significant percentage of C6 cytotoxicity was detected only upon the highest dose	absence of autophagia	accumulation of cells in G2/M phase	very mild recovering	statistically significant apoptosis	decreased dividing potential

Source: patent US8563578B2, “Antitumor properties of NO modified protease inhibitors” (Onconox APS, priority 2008, dated 2013)
